Literature values as cited in EP4691460A1, “RAMELTEON SUBLINGUAL FILM AND PREPARATION METHOD THEREFOR” (Hangzhou Chengbang Pharmaceutical Technology Co., Ltd, priority 2023, dated 2024).

Tests used:
MT1 receptors = MT1 receptors (Homo sapiens, UniProt P48039); conditions: fraction of the affinity of ramelteon
MT2 receptors = molecular target: T1, MT2 receptors (Homo sapiens, UniProt P49286); conditions: fraction of the affinity of ramelteon
T1 sequence (P49286 1-362): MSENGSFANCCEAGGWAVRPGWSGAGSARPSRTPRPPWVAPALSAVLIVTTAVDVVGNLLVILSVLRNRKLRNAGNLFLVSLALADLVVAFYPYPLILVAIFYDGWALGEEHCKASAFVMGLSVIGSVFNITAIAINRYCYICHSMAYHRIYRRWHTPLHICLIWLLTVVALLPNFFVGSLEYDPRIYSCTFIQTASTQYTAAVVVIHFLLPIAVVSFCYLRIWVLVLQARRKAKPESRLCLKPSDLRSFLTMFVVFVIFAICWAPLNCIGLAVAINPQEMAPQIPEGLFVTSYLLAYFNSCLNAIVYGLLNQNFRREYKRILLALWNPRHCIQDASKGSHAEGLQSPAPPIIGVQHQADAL

[1] = oral administration, clinical data
[2] = taken with a high-fat meal versus fasting

Sequence of MT1 receptors (P48039 whole entry): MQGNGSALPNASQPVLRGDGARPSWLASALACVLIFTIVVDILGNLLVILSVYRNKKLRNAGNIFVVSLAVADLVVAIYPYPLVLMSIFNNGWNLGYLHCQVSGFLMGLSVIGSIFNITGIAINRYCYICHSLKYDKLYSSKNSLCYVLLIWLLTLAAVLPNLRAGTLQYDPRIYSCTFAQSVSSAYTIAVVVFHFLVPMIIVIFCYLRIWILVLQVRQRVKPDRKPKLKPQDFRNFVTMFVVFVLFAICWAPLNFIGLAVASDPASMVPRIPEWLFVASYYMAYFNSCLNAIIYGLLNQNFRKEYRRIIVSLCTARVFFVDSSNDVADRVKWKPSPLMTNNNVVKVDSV

SMILES	total amount relative to the metabolic substrate (main metabolite versus ramelteon)	affinity with MT1 receptors relative to the metabolic substrate (MT1 receptors)	affinity with MT2 receptors relative to the metabolic substrate (MT2 receptors)	drug absorbed after oral administration [1]	median time to peak drug concentration [1]	absolute bioavailability (oral administration, first pass effect)	AUC higher than that of fasting administration (taken with a high-fat meal)	Cmax reduction [2]	median Tmax delay [2]
CC(O)C(=O)NCC[C@@H]1CCc2ccc3c(c21)CCO3 (stereo partly drawn) [M-II]	20-100 times	about one fifth	one tenth						
CCC(=O)NCC[C@@H]1CCc2ccc3c(c21)CCO3 [ramelteon, Ramelteon]				At least 84%	approximately 0.75 (0.5-1.5) h	1.4%	31%	22%	45 min
